Measurements: paper PMC7725003, “Systematically Studying the Optimal Amino Acid Distribution Patterns of the Amphiphilic Structure by Using the Ultrashort Amphiphiles” (Frontiers in Microbiology, 2020)
Where no end group is shown, it is not given here.

Key:
S. typhimurium 14028 = format: cell-based, Salmonella typhimurium; conditions: 14028, 24 h
Method in brief: (§1)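 Absorbance at 492 nm after 24 h at 37°C defined the MIC as the lowest peptide level inhibiting 95% of growth. Inoculum was 0.5–1 × 10^6 CFU mL^–1 mid-log cells in MHB; peptides were diluted in 0.2% BSA.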

S. typhimurium 7731 = format: cell-based, Salmonella typhimurium; conditions: 7731, 24 h
Method in brief: as §1

E. coli ATCC 25922 = test: Salt sensitivity assay (MIC); format: cell-based, Escherichia coli; conditions: for MIC, FeCl3: 4 μM FeCl3; for MIC, NH4Cl: 6 μM NH4Cl; for MIC, ZnCl2: 8 μM ZnCl2; for MIC, MgCl2: 1 mM MgCl2; for MIC, CaCl2: 2 mM CaCl2; for MIC, KCl: 4.5 mM KCl; for MIC, NaCl: 150 mM NaCl; for MIC, Control: no added salt, three independent assays
Method in brief: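 The salt sensitivity of peptides was tested against E. coli ATCC 25922 using a modified NCCLS broth microdilution MIC method. Mid-log bacteria were diluted in MHB to 0.5–1 × 10^6 CFU mL^–1 and mixed in equal volumes with peptides serially diluted in 0.2% BSA in 96-well plates. Physiological salt was added where specified, and the assay was done three independent times.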

S. aureus 29213 [1] = format: cell-based, Staphylococcus aureus; conditions: 29213, 24 h
Method in brief: as §1

S. aureus 25923 = format: cell-based, Staphylococcus aureus; conditions: 25923, 24 h
Method in brief: as §1

P. aeruginosa 27853 = format: cell-based, Pseudomonas aeruginosa; conditions: 27853, 24 h
Method in brief: as §1

Gram-negative bacteria [2] = conditions: geometric mean of MBCs, 9 Gram-negative strains (Table 2)
E. coli O78 = format: cell-based, Escherichia coli; conditions: O78, 24 h
Method in brief: as §1

E. coli 25922 = format: cell-based, Escherichia coli; conditions: 25922, 24 h
Method in brief: as §1

E. coli UB1005 = format: cell-based, Escherichia coli; conditions: UB1005, 24 h
Method in brief: as §1

E. coli K88 = conditions: for MIC: MHB, 24 h 37°C, 95% growth inhibition; for MBC: value in brackets, >99.9% of cells killed
Experimental: (§2) The antimicrobial activities of the peptides were measured using a method adapted from the National Committee for Clinical Laboratory Standards (NCCLS) with some modifications ([Chou et al., 2016]). The specific procedure for these assays has been previously described. In brief, the bacterial cells were grown to a mid-logarithmic phase and diluted in MHB to an ultimate concentration of 0.5–1 × 10^6 CFU mL^–1. Subsequently, the peptides were consecutively diluted in a 0.2% BSA solution and then added to a bacterial solution in a 96-well plate at identical volumes. After incubation for 24 h at 37°C, the MICs were determined to be the lowest peptide concentration that inhibited 95% of the bacterial growth by monitoring the absorbance at 492 nm using a microplate reader. Subsequently, 50 μL of each incubation mixture was further transferred to agar plates and incubated overnight. […] Every assay was reproduced more than 3 times.

E. coli K99 = conditions: for MIC: MHB, 24 h 37°C, 95% growth inhibition; for MBC: value in brackets, >99.9% of cells killed
Experimental: as §2

Gram-positive bacteria [3] = conditions: for GM MIC: geometric mean of MICs, 7 Gram-positive strains (Table 2); for TI, Gram-positive bacteria: therapeutic index TI = MHC/GM MIC
Method in brief: (§3)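 Broth microdilution adapted from NCCLS: mid-log bacteria diluted in MHB to 0.5–1 × 10^6 CFU mL^–1, mixed with peptides serially diluted in 0.2% BSA. After 24 h at 37°C, MIC taken as the lowest concentration inhibiting 95% of growth by absorbance at 492 nm. Assays repeated more than 3 times.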

Gram-negative bacteria [4] = conditions: for GM MIC: geometric mean of MICs, 9 Gram-negative strains (Table 2); for TI, Gram-negative bacteria: therapeutic index TI = MHC/GM MIC
Method in brief: as §3

S. pullorum 7913 = format: cell-based, Salmonella pullorum; conditions: 7913, 24 h
Method in brief: as §1

B. subtilis 63501 = format: cell-based, Bacillus subtilis; conditions: 63501, 24 h
Method in brief: as §1

[5] = test system: all of the tested bacterial strains; test: Geometric mean of MICs, all tested bacterial strains; format: cell-based; conditions: for GM, All: geometric mean of MICs across all tested strains; for TI, All: therapeutic index TI = MHC/GM MIC
Method in brief: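 Mid-log bacteria at 0.5–1 × 10^6 CFU mL^–1 in MHB with peptides serially diluted in 0.2% BSA, 24 h at 37°C. MIC is the lowest concentration giving 95% growth inhibition by A492. MBC is the lowest giving >99.9% kill on agar subculture, and the GM is taken over all strains.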

MRSA 43300 = format: cell-based, methicillin-resistant S. aureus; conditions: 43300, 24 h
Method in brief: as §1

S. epidermidis 12228 = format: cell-based, Staphylococcus epidermidis; conditions: 12228, 24 h
Method in brief: as §1

S. aureus 29213 [6] = test: Salt sensitivity assay (MIC); format: cell-based, Staphylococcus aureus; conditions: for MIC, FeCl3: 4 μM FeCl3; for MIC, NH4Cl: 6 μM NH4Cl; for MIC, ZnCl2: 8 μM ZnCl2; for MIC, MgCl2: 1 mM MgCl2; for MIC, CaCl2: 2 mM CaCl2; for MIC, KCl: 4.5 mM KCl; for MIC, NaCl: 150 mM NaCl; for MIC, Control: no added salt, three independent assays
Method in brief: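 MICs determined by broth microdilution in MHB with 0.5–1 × 10^6 CFU/mL, peptides serially diluted in 0.2% BSA, 24 h at 37°C. Medium supplemented with physiological salts (150 mM NaCl, 4.5 mM KCl, 6 μM NH4Cl, 8 μM ZnCl2, 1 mM MgCl2, 2mM CaCl2, 4 μM FeCl3). MIC = lowest concentration inhibiting 95% growth (A492).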

Gram-positive bacteria [7] = conditions: geometric mean of MBCs, 7 Gram-positive strains (Table 2)
E. faecalis 29212 = format: cell-based, Enterococcus faecalis; conditions: 29212, 24 h
Method in brief: as §1

[8] = test system: Listeria monocytogenes CGMCC 1.1075; format: cell-based; conditions: CGMCC 1.1075, 24 h
Method in brief: as §1

RRLLLLRRL-NH2 [L7]
> 64 µM: MIC (S. typhimurium 14028) | MIC (S. typhimurium 7731) | MIC, FeCl3 (E. coli ATCC 25922) | MIC, NH4Cl (E. coli ATCC 25922) | MIC, ZnCl2 (E. coli ATCC 25922) | MIC, MgCl2 (E. coli ATCC 25922) | MIC, CaCl2 (E. coli ATCC 25922) | MIC, KCl (E. coli ATCC 25922) | MIC, NaCl (E. coli ATCC 25922) | MIC, Control (E. coli ATCC 25922) | MIC (S. aureus 25923) | MIC (P. aeruginosa 27853) | MIC (E. coli 25922) | MIC (S. epidermidis 12228) | MIC, FeCl3 (S. aureus 29213 [6]) | MIC, NH4Cl (S. aureus 29213 [6]) | MIC, ZnCl2 (S. aureus 29213 [6]) | MIC, MgCl2 (S. aureus 29213 [6]) | MIC, CaCl2 (S. aureus 29213 [6]) | MIC, KCl (S. aureus 29213 [6]) | MIC, NaCl (S. aureus 29213 [6]) | MIC, Control (S. aureus 29213 [6]) | MIC (E. faecalis 29212)
78.02 µM: GM MBC (Gram-positive bacteria [7])
4.00: TI, Gram-positive bacteria (Gram-positive bacteria [3])
16 µM: MBC (B. subtilis 63501) | MIC [8]
8 µM: MIC (B. subtilis 63501)
118.51 µM: GM MBC (Gram-negative bacteria [2])
>64 µM: MIC (S. aureus 29213 [1]) | MIC (E. coli UB1005) | MIC (S. pullorum 7913) | MIC (MRSA 43300)
64.00 µM: GM MIC (Gram-positive bacteria [3])
79.48 µM: GM, All [5]
2.72: TI, Gram-negative bacteria (Gram-negative bacteria [4])
32 µM: MIC (E. coli K88) | MBC [8]
3.22: TI, All [5]
128 µM: MBC (E. coli O78) | MBC (E. coli K99)
64 µM: MIC (E. coli O78) | MBC (E. coli K88) | MIC (E. coli K99)
94.06 µM: GM MIC (Gram-negative bacteria [4])

LRRRLLLLR-NH2 [L6]
32 µM: MIC (B. subtilis 63501)
64 µM: MIC (E. coli O78) | MIC (E. coli K88) | MIC (E. coli K99) | MBC (B. subtilis 63501)
> 64 µM: MIC (S. typhimurium 14028) | MIC (S. typhimurium 7731) | MIC, FeCl3 (E. coli ATCC 25922) | MIC, NH4Cl (E. coli ATCC 25922) | MIC, ZnCl2 (E. coli ATCC 25922) | MIC, MgCl2 (E. coli ATCC 25922) | MIC, CaCl2 (E. coli ATCC 25922) | MIC, KCl (E. coli ATCC 25922) | MIC, NaCl (E. coli ATCC 25922) | MIC, Control (E. coli ATCC 25922) | MIC (S. aureus 25923) | MIC (P. aeruginosa 27853) | MIC (E. coli 25922) | MIC (S. epidermidis 12228) | MIC, FeCl3 (S. aureus 29213 [6]) | MIC, NH4Cl (S. aureus 29213 [6]) | MIC, ZnCl2 (S. aureus 29213 [6]) | MIC, MgCl2 (S. aureus 29213 [6]) | MIC, CaCl2 (S. aureus 29213 [6]) | MIC, KCl (S. aureus 29213 [6]) | MIC, NaCl (S. aureus 29213 [6]) | MIC, Control (S. aureus 29213 [6]) | MIC (E. faecalis 29212)
103.07 µM: GM, All [5]
2.52: TI, Gram-negative bacteria (Gram-negative bacteria [4])
128 µM: MBC (E. coli O78) | MBC (E. coli K88) | MBC (E. coli K99)
105.00 µM: GM MIC (Gram-positive bacteria [3])
>64 µM: MIC (S. aureus 29213 [1]) | MIC (E. coli UB1005) | MIC (S. pullorum 7913) | MIC (MRSA 43300) | MIC [8]
2.44: TI, Gram-positive bacteria (Gram-positive bacteria [3])
115.93 µM: GM MBC (Gram-positive bacteria [7])
128.00 µM: GM MBC (Gram-negative bacteria [2])
2.48: TI, All [5]
101.59 µM: GM MIC (Gram-negative bacteria [4])

RRLLLRLRL-NH2 [L8]
8 µM: MIC, NH4Cl (E. coli ATCC 25922) | MIC, ZnCl2 (E. coli ATCC 25922) | MIC (E. coli O78) | MBC (E. coli K88) | MIC (S. pullorum 7913) | MBC (B. subtilis 63501) | MBC [8]
23.78 µM: GM MIC (Gram-positive bacteria [3])
64 µM: MBC (S. typhimurium 14028) | MBC (S. typhimurium 7731) | MIC, NaCl (E. coli ATCC 25922) | MBC (S. aureus 29213 [1]) | MIC (S. aureus 25923) | MIC (P. aeruginosa 27853) | MBC (E. coli UB1005) | MBC (MRSA 43300) | MBC (S. epidermidis 12228) | MIC, MgCl2 (S. aureus 29213 [6]) | MIC, KCl (S. aureus 29213 [6])
16 µM: MIC, FeCl3 (E. coli ATCC 25922) | MIC, Control (E. coli ATCC 25922) | MBC (E. coli O78) | MIC (E. coli 25922) | MIC (E. coli K99) | MBC (S. pullorum 7913)
12.88: TI, All [5]
10.77: TI, Gram-positive bacteria (Gram-positive bacteria [3])
128 µM: MBC (S. aureus 25923) | MBC (P. aeruginosa 27853)
4 µM: MIC (E. coli K88) | MIC (B. subtilis 63501) | MIC [8]
17.28 µM: GM MIC (Gram-negative bacteria [4])
43.07 µM: GM MBC (Gram-positive bacteria [7])
32.00 µM: GM MBC (Gram-negative bacteria [2])
19.87 µM: GM, All [5]
> 64 µM: MIC, CaCl2 (E. coli ATCC 25922) | MIC, CaCl2 (S. aureus 29213 [6]) | MIC (E. faecalis 29212)
14.81: TI, Gram-negative bacteria (Gram-negative bacteria [4])
32 µM: MIC (S. typhimurium 14028) | MIC (S. typhimurium 7731) | MIC, MgCl2 (E. coli ATCC 25922) | MIC, KCl (E. coli ATCC 25922) | MIC (S. aureus 29213 [1]) | MBC (E. coli 25922) | MIC (E. coli UB1005) | MBC (E. coli K99) | MIC (MRSA 43300) | MIC (S. epidermidis 12228) | MIC, FeCl3 (S. aureus 29213 [6]) | MIC, NH4Cl (S. aureus 29213 [6]) | MIC, ZnCl2 (S. aureus 29213 [6])
